This passage reports drug degradation results from EP0524718A1, “Polyurethane hydrogel compositions for iontophoretic drug delivery” (GENSIA PHARMACEUTICALS, INC., priority 1991, dated 1993).

Each structure is given as a SMILES string.

The nature of the series: Drug stability in hydrogel matrix electrode pads (isocratic HPLC assay). The class given is physicochemical. The note with it: in Hypol Hydrogel matrix, room temperature and 4°C, after six months.

Experimental: Stability of Arbutamine in electrode pads using the hydrogel matrix prepared from Hypol Hydrogel prepolymer was studied using the 3M Red Dot™ Electrode Construction. […] The matrix incorporating the drug was placed in the 3M Red Dot electrode (after removing the gel supplied with the electrode). The electrode was secured in an aluminum pouch with or without a nitrogen flush (as noted). Drug stability studies were carried out at room temperature and 4°C.

In the case of `Cl.Oc1ccc(CCCCNCC(O)c2ccc(O)c(O)c2)cc1` (stereo not shown) [Arbutamine, 1-(3,4-dihydroxyphenyl)-2-(4-(4-hydroxyphenyl)butylamino)ethanol hydrochloride], the drug degradation result is reported as “no significant drug degradation”.
